From ChEMBL document CHEMBL1123909, “New inhibitors of human renin that contain novel Leu-Val replacements” (J Med Chem, 1987)

What was measured:
Renin [1] = target: T1, Renin (Homo sapiens, UniProt P00797); assay: Inhibition of human renal renin at the pH optimum 6.0.
T1 sequence (P00797 whole entry): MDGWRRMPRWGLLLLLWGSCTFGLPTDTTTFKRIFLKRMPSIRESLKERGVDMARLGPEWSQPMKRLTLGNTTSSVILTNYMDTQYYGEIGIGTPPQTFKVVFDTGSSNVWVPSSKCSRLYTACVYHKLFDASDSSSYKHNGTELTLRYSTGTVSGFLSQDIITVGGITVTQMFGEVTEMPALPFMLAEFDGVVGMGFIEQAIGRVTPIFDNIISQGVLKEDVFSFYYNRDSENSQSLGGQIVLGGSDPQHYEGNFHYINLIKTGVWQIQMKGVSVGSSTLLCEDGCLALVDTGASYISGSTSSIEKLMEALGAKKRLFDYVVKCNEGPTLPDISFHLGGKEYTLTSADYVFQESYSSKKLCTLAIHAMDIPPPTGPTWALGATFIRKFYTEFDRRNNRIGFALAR

Renin (Homo sapiens) [2] = target: T2, Renin (Homo sapiens) (UniProt P00797); assay: Inhibition of human renal renin at the concentration of 10e-5 M.
T2 sequence (whole entry): T1 sequence (P00797 whole entry)

Pepsin A (Sus scrofa) = Pepsin A (Sus scrofa) (UniProt P00791); assay: Inhibition of porcine pepsin; parameters: concentration or dose not given beside the values; details: concentration not given here
Renin (Homo sapiens) [3] = target: T2, Renin (Homo sapiens); assay: The compound was tested for inhibition of human renal renin at the concentration of 10e-6 M
Renin [4] = target: T1, Renin; assay: The compound was tested for inhibition of human renal renin at the pH optimum 7.4
Renin (Homo sapiens) [5] = target: T2, Renin (Homo sapiens); assay: The compound was tested for inhibition of human renal renin at the concentration of 10e-7 M
Renin (Homo sapiens) [6] = target: T2, Renin (Homo sapiens); assay: The compound was tested for inhibition of human renal renin at the concentration of 10e-5 M (2:1 mixture of S:R diastereomers at the carbon bearing the hydroxyl group.
Renin (Homo sapiens) [7] = target: T2, Renin (Homo sapiens); assay: The compound was tested for inhibition of human renal renin at the concentration of 10e-5 M (compound with OH epimer)

Pepsin A (Sus scrofa), sequence (P00791 60-385 limits assumed): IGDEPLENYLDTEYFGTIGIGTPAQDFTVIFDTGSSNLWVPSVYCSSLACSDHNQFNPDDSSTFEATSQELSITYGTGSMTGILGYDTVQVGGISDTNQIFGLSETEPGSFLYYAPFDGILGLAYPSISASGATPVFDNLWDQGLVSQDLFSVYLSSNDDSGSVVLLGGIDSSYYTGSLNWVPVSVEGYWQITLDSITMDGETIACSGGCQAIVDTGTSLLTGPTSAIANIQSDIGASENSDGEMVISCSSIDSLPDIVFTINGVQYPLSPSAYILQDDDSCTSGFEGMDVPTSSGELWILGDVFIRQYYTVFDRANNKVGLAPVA

IC50 (Renin [1])	inhibition (Renin (Homo sapiens) [2])	Compound	other results
800 nM	94%	CC(C)C[C@@H](NC(=O)[C@H](C)NC(=O)[C@H](Cc1ccccc1)NC(=O)OC(C)(C)C)[C@H](O)CSC1CCCCC1	inhibition (Pepsin A (Sus scrofa)): 100%
600 nM		CC(C)CC[C@@H](O)[C@@H](CC(C)C)NC(=O)[C@H](Cc1c[nH]cn1)NC(=O)[C@H](Cc1ccc2ccccc2c1)NC(=O)OC(C)(C)C	inhibition (Renin (Homo sapiens) [3]): 87%
7000 nM	54%	CC(C)C[C@@H](NC(=O)[C@H](C)NC(=O)[C@H](Cc1ccccc1)NC(=O)OC(C)(C)C)[C@H](O)COC(C)C	
		CC(C)CC[C@@H](O)[C@@H](CC(C)C)NC(=O)[C@H](Cc1c[nH]cn1)NC(=O)[C@H](Cc1cccc2ccccc12)NC(=O)OC(C)(C)C	IC50 (Renin [4]): 150 nM; inhibition (Renin (Homo sapiens) [3]): 93%; inhibition (Pepsin A (Sus scrofa)): 6%
	48%	CC(C)C[C@@H](NC(=O)[C@H](C)NC(=O)[C@H](Cc1ccccc1)NC(=O)OC(C)(C)C)[C@H](O)COc1ccccc1	inhibition (Pepsin A (Sus scrofa)): 27%
1000 nM	94%	CC(C)C[C@@H](NC(=O)[C@H](C)NC(=O)[C@H](Cc1ccccc1)NC(=O)OC(C)(C)C)[C@H](O)CSC1CCCC1	
90 nM		CC(C)C[C@@H](NC(=O)[C@H](Cc1c[nH]cn1)NC(=O)[C@H](Cc1ccccc1)NC(=O)OC(C)(C)C)[C@H](O)CS(=O)(=O)C1CCCCC1	inhibition (Renin (Homo sapiens) [3]): 92%; inhibition (Renin (Homo sapiens) [5]): 51%
	12%	CC(C)C[C@@H](NC(=O)[C@H](C)NC(=O)[C@H](Cc1ccccc1)NC(=O)OC(C)(C)C)[C@H](O)C[S+]([O-])c1ccccc1 (some centres undefined)	
1500 nM	85%	CC(C)C[C@@H](NC(=O)[C@H](Cc1c[nH]cn1)NC(=O)[C@H](Cc1ccccc1)NC(=O)OC(C)(C)C)[C@H](O)COC(C)C	inhibition (Pepsin A (Sus scrofa)): 0%
		CC(C)C[C@@H](NC(=O)[C@H](C)NC(=O)[C@H](Cc1ccccc1)NC(=O)OC(C)(C)C)[C@H](O)CCc1ccccc1	inhibition (Renin (Homo sapiens) [6]): 35%
2000 nM	85%	CC(C)CC[C@H](O)[C@H](CC(C)C)NC(=O)[C@H](C)NC(=O)[C@H](Cc1ccccc1)NC(=O)OC(C)(C)C	
1500 nM	93%	CC(C)CCSC[C@@H](O)[C@@H](CC(C)C)NC(=O)[C@H](C)NC(=O)[C@H](Cc1ccccc1)NC(=O)OC(C)(C)C	
7000 nM	59%	CC(C)COC[C@@H](O)[C@@H](CC(C)C)NC(=O)[C@H](C)NC(=O)[C@H](Cc1ccccc1)NC(=O)OC(C)(C)C	inhibition (Pepsin A (Sus scrofa)): 68%
1000 nM	88%	CC(C)C[C@@H](NC(=O)[C@H](C)NC(=O)[C@H](Cc1ccccc1)NC(=O)OC(C)(C)C)[C@H](O)CSCCCc1ccccc1	inhibition (Pepsin A (Sus scrofa)): 74%
600 nM	97%	CC(C)CCC[C@@H](O)[C@@H](CC(C)C)NC(=O)[C@H](Cc1c[nH]cn1)NC(=O)[C@H](Cc1ccccc1)NC(=O)OC(C)(C)C	
8000 nM	56%	CC(C)C[C@@H](NC(=O)[C@H](C)NC(=O)[C@H](Cc1ccccc1)NC(=O)OC(C)(C)C)[C@H](O)CSc1ccccc1	
81 nM		CC(C)C[C@@H](NC(=O)[C@H](Cc1c[nH]cn1)NC(=O)[C@H](Cc1ccccc1)NC(=O)OC(C)(C)C)[C@H](O)CSC(C)C	inhibition (Renin (Homo sapiens) [3]): 92%; inhibition (Renin (Homo sapiens) [5]): 54%
700 nM	90%	CC(C)C[C@H](NC(=O)[C@H](C)NC(=O)[C@H](Cc1ccccc1)NC(=O)OC(C)(C)C)[C@@H](O)CSC(C)C	inhibition (Pepsin A (Sus scrofa)): 73%
	35%	CC(C)C[C@@H](NC(=O)[C@H](Cc1c[nH]cn1)NC(=O)[C@H](Cc1ccccc1)NC(=O)OC(C)(C)C)[C@H](O)CNC(C)C	
	21%	CC(C)C[C@@H](NC(=O)[C@H](C)NC(=O)[C@H](Cc1ccccc1)NC(=O)OC(C)(C)C)[C@H](O)CSc1ccc(Br)cc1	
	23%	CC(C)C[C@@H](NC(=O)[C@H](C)NC(=O)[C@H](Cc1ccccc1)NC(=O)OC(C)(C)C)[C@H](O)CSc1ccc2ccccc2c1	
1500 nM	89%	CC(C)CSC[C@@H](O)[C@@H](CC(C)C)NC(=O)[C@H](C)NC(=O)[C@H](Cc1ccccc1)NC(=O)OC(C)(C)C	
		CC(C)C[C@H](NC(=O)[C@H](Cc1c[nH]cn1)NC(=O)[C@H](Cc1ccccc1)NC(=O)OC(C)(C)C)[C@@H](O)CSC1CCCCC1 (stereo in doubt; 56) [listing 1 of 2 here]	inhibition (Renin (Homo sapiens) [7]): 95%
35 nM		CC(C)C[C@H](NC(=O)[C@H](Cc1c[nH]cn1)NC(=O)[C@H](Cc1ccccc1)NC(=O)OC(C)(C)C)[C@@H](O)CSC1CCCCC1 (stereo in doubt; 55) [listing 1 of 2 here]	
520 nM		CC(C)C[C@H](NC(=O)[C@H](Cc1c[nH]cn1)NC(=O)[C@H](Cc1ccccc1)NC(=O)OC(C)(C)C)[C@@H](O)CSC1CCCCC1 (stereo in doubt; 56) [listing 2 of 2 here]	

IC50 (Renin [1])	inhibition (Renin (Homo sapiens) [2])	Compound	other results
	7%	CC(C)C[C@@H](NC(=O)[C@H](C)NC(=O)[C@H](Cc1ccccc1)NC(=O)OC(C)(C)C)[C@H](O)CSc1cccc2ccccc12	
		CC(C)C[C@H](NC(=O)[C@H](Cc1c[nH]cn1)NC(=O)[C@H](Cc1ccccc1)NC(=O)OC(C)(C)C)[C@@H](O)CSC1CCCCC1 (stereo in doubt; 55) [listing 2 of 2 here]	inhibition (Renin (Homo sapiens) [5]): 78%
4500 nM	73%	CC(C)C[C@@H](NC(=O)[C@H](C)NC(=O)[C@H](Cc1ccccc1)NC(=O)OC(C)(C)C)[C@H](O)CSCCc1ccccc1	
	94%	CC(C)CCS(=O)(=O)C[C@@H](O)[C@@H](CC(C)C)NC(=O)[C@H](Cc1c[nH]cn1)NC(=O)[C@H](Cc1ccccc1)NC(=O)OC(C)(C)C	IC50 (Renin [4]): 500 nM
650 nM	94%	CC(C)COC[C@@H](O)[C@@H](CC(C)C)NC(=O)[C@H](Cc1c[nH]cn1)NC(=O)[C@H](Cc1ccccc1)NC(=O)OC(C)(C)C	inhibition (Pepsin A (Sus scrofa)): 0%
	98%	CC(C)C[C@@H](NC(=O)[C@H](Cc1c[nH]cn1)NC(=O)[C@H](Cc1ccccc1)NC(=O)OC(C)(C)C)[C@H](O)CS(=O)(=O)CC(C)C	IC50 (Renin [4]): 350 nM
	25%	CC(C)C[C@@H](NC(=O)[C@H](C)NC(=O)[C@H](Cc1ccccc1)NC(=O)OC(C)(C)C)[C@H](O)CS(=O)(=O)c1ccccc1	
		CC(C)CC[C@@H](O)[C@H](CC(C)C)NC(=O)[C@H](C)NC(=O)[C@H](Cc1ccccc1)NC(=O)OC(C)(C)C	inhibition (Renin (Homo sapiens) [7]): 16%
13 nM		CC(C)C[C@@H](NC(=O)[C@H](Cc1c[nH]cn1)NC(=O)[C@H](Cc1cccc2ccccc12)NC(=O)OC(C)(C)C)[C@H](O)CSC1CCCCC1	inhibition (Renin (Homo sapiens) [5]): 85%
1500 nM	89%	CC(C)CC[C@@H](O)[C@@H](CC(C)C)NC(=O)[C@H](Cc1c[nH]cn1)NC(=O)[C@H](Cc1ccccc1)NC(=O)OC(C)(C)C	
200 nM	99%	CC(C)C[C@@H](NC(=O)[C@H](Cc1c[nH]cn1)NC(=O)[C@H](Cc1ccccc1)NC(=O)OC(C)(C)C)[C@H](O)CS(=O)(=O)C(C)C	inhibition (Pepsin A (Sus scrofa)): 3%
	15%	CC(C)C[C@@H](NC(=O)[C@H](C)NC(=O)[C@H](Cc1ccccc1)NC(=O)OC(C)(C)C)[C@H](O)CSc1ccc(C(C)(C)C)cc1	
	48%	CC(C)C[C@@H](NC(=O)[C@H](Cc1ccccc1)NC(=O)[C@H](Cc1ccccc1)NC(=O)OC(C)(C)C)[C@H](O)CSc1ccccc1	inhibition (Pepsin A (Sus scrofa)): 11%
	46%	CC(C)C[C@@H](NC(=O)[C@H](C)NC(=O)[C@H](Cc1ccccc1)NC(=O)OC(C)(C)C)[C@H](O)C[S+]([O-])C1CCCCC1 (some centres undefined)	
	48%	CC(C)C[C@@H](NC(=O)[C@H](C)NC(=O)[C@H](Cc1ccccc1)NC(=O)OC(C)(C)C)[C@H](O)CSCc1cccc2ccccc12	
960 nM	96%	CC(C)C[C@@H](NC(=O)[C@H](Cc1c[nH]cn1)NC(=O)[C@H](Cc1ccccc1)NC(=O)OC(C)(C)C)[C@H](O)CSc1ccccc1	inhibition (Pepsin A (Sus scrofa)): 0%
	5%	CC(C)C[C@@H](NC(=O)[C@H](C)NC(=O)[C@H](Cc1ccccc1)NC(=O)OC(C)(C)C)[C@H](O)CNC(C)C	
3500 nM	71%	CC(C)CCC[C@@H](O)[C@@H](CC(C)C)NC(=O)[C@H](C)NC(=O)[C@H](Cc1ccccc1)NC(=O)OC(C)(C)C	
2000 nM	76%	CC(C)C[C@@H](NC(=O)[C@H](C)NC(=O)[C@H](Cc1ccccc1)NC(=O)OC(C)(C)C)[C@H](O)CS(=O)(=O)C1CCCCC1	
3000 nM	88%	CC(C)C[C@@H](NC(=O)[C@H](C)NC(=O)[C@H](Cc1ccccc1)NC(=O)OC(C)(C)C)[C@H](O)CSC(C)(C)C	
		CC(C)C[C@@H](NC(=O)[C@H](Cc1c[nH]cn1)NC(=O)[C@H](Cc1ccc2ccccc2c1)NC(=O)OC(C)(C)C)[C@H](O)CSC1CCCCC1	IC50 (Renin [4]): 40 nM; inhibition (Renin (Homo sapiens) [5]): 85%; inhibition (Pepsin A (Sus scrofa)): 0%
	21%	CC(C)C[C@@H](NC(=O)[C@H](Cc1ccc(O)cc1)NC(=O)[C@H](Cc1ccccc1)NC(=O)OC(C)(C)C)[C@H](O)CSc1ccccc1	inhibition (Pepsin A (Sus scrofa)): 11%
	30%	CC(C)C[C@@H](NC(=O)[C@H](C)NC(=O)[C@H](Cc1ccccc1)NC(=O)OC(C)(C)C)[C@H](O)CNc1ccccc1	
10000 nM	57%	CC(C)C[C@@H](NC(=O)[C@H](C)NC(=O)[C@H](Cc1ccccc1)NC(=O)OC(C)(C)C)[C@H](O)CSCc1ccccc1	inhibition (Pepsin A (Sus scrofa)): 96%
